The source of these data is paper PMC12595434, “Development of retinoid nuclear receptor pathway antagonists through targeting aldehyde dehydrogenase 1A3” (iScience, 2025).

This assay addresses ADORA2A (Homo sapiens, UniProt P29274). Briefly: Off-target profiling panel. It is filed as binding. The following applies: read-out: Inhibition by MBE1 at 10 μM (%).

Sequence of ADORA2A (P29274 whole entry): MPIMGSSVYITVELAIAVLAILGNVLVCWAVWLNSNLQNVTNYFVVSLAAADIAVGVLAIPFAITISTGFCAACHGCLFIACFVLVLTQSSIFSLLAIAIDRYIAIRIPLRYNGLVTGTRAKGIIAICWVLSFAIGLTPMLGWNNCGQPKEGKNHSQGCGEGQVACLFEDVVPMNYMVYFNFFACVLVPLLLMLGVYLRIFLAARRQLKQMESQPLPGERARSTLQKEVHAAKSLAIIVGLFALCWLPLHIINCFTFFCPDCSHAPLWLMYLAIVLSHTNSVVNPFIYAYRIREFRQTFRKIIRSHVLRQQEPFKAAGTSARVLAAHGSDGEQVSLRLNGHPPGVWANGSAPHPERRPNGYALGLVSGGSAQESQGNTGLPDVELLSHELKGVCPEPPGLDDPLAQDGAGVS

Turning to `CCc1cnccc1C(=O)Nc1cc2c(cc1F)NC(=O)CC2` [MBE1, 3-ethyl-N-(7-fluoro-2-oxo-3,4-dihydro-1H-quinolin-6-yl)pyridine-4-carboxamide], the inhibition at 10 µM is -15.7%.
